The values that follow are results of earlier work, collected in patent US6440950B1, “Selective and non-invasive visualization or treatment of vasculature” (The Johns Hopkins University, priority 1994, dated 2002).

The conditions of series [1]: used intraperitonially in a few patients.
For series [2] the following is noted: in a number of species.
For series [3] the following is noted: in vivo.

Take “aluminum phthalocyanine tetrasulfonate [AlPcS4]”: the water solubility entry is “water soluble”. Also, the side effects result in series [1] is given as “no side effects have been reported”. In series [2], the toxicity entry is “non-toxic”. Further, in series [3], the “time to removal from the blood” value is no more than 24 h.
